Data: patent US20240269139A1, “COMPOUNDS FOR TARGETED PROTEIN DEGRADATION OF KINASES” (DANA-FARBER CANCER INSTITUTE, INC., priority 2020, published 2024)
Read-outs that look alike come from different tables or passages of the source.

Key:
Assay type in all cases: cell-based
[1] = molecular target: T1, protein kinases (human kinome) (Homo sapiens, UniProt O14965); settings: experiment wp016
T1 sequence (O14965 1-403): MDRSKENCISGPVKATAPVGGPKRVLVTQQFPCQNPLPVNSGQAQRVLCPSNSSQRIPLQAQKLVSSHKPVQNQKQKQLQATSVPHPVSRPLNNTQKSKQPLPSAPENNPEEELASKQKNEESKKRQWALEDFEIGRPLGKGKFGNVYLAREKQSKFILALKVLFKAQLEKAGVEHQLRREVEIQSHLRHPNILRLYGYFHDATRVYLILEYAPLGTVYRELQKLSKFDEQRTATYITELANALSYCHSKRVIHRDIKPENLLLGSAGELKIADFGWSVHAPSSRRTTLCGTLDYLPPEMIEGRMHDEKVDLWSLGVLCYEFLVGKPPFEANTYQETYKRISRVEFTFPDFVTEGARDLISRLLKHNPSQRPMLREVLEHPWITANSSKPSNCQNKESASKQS
Source text: (§1) Although development of targeted protein degraders requires a POI binder, among already-liganded proteins such as kinases, it was hypothesized that different targets would have a different propensity for current approaches to degrader-mediated destruction, which was termed ‘degradability’. […] It was rationalized that the probability of identifying the same kinase as a false positive in multiple treatments is low, therefore this analysis served to also assess the robustness of our data and subsequent interpretations. […] Overall, 62 protein kinases were degraded in more than 10 independent treatments, and remarkably, 9 of these (CDK4, AURKA, FER, WEE1, BLK. LIMK2, CDK6, GAK, LIMK1) were each degraded in at least 40 of the 154 independent treatments, emphasizing their predisposition to induced degradation (FIG. 1G; Appendix I).
(§2) Next, the frequency of degradation assessment was corrected for over-representation of molecules in the full dataset by omitting replicate profiling of compounds under different experimental conditions, to remove any bias. […] Unsurprisingly, the top degradable kinases mirror those from the previous analysis (CDK4, AURKA, FER, WEE1, BLK), confirming that in sufficiently large datasets, even with over-representation of certain molecules, frequency of degradation is a good measure of general tractability.

[2] = molecular target: protein kinases (human kinome) (Homo sapiens, UniProt O94804); settings: STK10 (O94804), experiment wp016
Source text: as §1, §2

[3] = molecular target: protein kinases (human kinome) (Homo sapiens, UniProt P11802); settings: experiment wp016
Source text: as §1, §2

[4] = molecular target: protein kinases (human kinome) (Homo sapiens, UniProt P16591); settings: for logFC of FER (P16591-1): Experiment wp016, down; for logFC of FER: FER P16591-1, experiment wp016
Source text: as §1, §2

[5] = molecular target: protein kinases (human kinome) (Homo sapiens, UniProt P24941); settings: experiment wp016
Source text: as §1, §2

[6] = molecular target: protein kinases (human kinome) (Homo sapiens, UniProt P30291); settings: experiment wp016
Source text: as §1, §2

[7] = molecular target: protein kinases (human kinome) (Homo sapiens, UniProt P50613); settings: for logFC: CDK7 (P50613) protein abundance, degrader vs DMSO, down; for logFC CDK7: CDK7 P50613, experiment wp016
Source text: as §1, §2

[8] = molecular target: protein kinases (human kinome) (Homo sapiens, UniProt P51451); settings: for logFC of BLK: BLK P51451, experiment wp016; for logFC of BLK (P51451): Experiment wp016, down
Source text: as §1, §2

[9] = molecular target: protein kinases (human kinome) (Homo sapiens, UniProt P53671); settings: experiment wp016; for logFC LIMK2: LIMK2 (P53671), down; for logFC of LIMK2: LIMK2 P53671
Source text: as §1, §2

[10] = molecular target: protein kinases (human kinome) (Homo sapiens, UniProt Q00534); settings: for logFC CDK6: CDK6 (Q00534), direction down, experiment wp016; for logFC of CDK6 (Q00534): Experiment wp016, down
Source text: as §1, §2

[11] = molecular target: protein kinases (human kinome) (Homo sapiens, UniProt Q00535); settings: experiment wp016; for logFC of CDK5: Accession Q00535; for logFC CDK5 (Q00535): direction of change down
Source text: as §1, §2

[12] = molecular target: protein kinases (human kinome) (Homo sapiens, UniProt Q00537); settings: experiment wp016; for logFC of CDK17: Accession Q00537; for logFC CDK17 (Q00537): direction of change down
Source text: as §1, §2

[13] = molecular target: T2, protein kinases (human kinome) (Homo sapiens, UniProt Q08881); settings: experiment wp016
T2 sequence (Q08881 1-620): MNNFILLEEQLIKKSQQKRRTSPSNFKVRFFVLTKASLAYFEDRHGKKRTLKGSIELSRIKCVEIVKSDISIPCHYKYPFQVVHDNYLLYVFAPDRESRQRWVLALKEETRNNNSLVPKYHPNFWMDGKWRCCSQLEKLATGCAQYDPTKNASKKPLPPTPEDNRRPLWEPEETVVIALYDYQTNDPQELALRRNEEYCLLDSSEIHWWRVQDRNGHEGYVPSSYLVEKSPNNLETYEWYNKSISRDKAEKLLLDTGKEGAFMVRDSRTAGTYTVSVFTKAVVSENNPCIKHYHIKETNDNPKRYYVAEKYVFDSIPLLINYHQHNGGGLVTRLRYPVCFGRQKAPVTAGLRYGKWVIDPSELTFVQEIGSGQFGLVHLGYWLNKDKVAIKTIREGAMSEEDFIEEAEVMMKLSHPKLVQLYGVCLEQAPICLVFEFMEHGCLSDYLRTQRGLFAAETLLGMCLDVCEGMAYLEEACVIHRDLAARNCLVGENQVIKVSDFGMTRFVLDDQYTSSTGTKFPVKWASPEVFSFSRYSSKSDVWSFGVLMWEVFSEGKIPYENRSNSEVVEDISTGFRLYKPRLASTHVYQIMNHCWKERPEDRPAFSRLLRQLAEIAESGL
Source text: as §1, §2

[14] = molecular target: protein kinases (human kinome) (Homo sapiens, UniProt Q14004); settings: experiment wp016
Source text: as §1, §2

[15] = molecular target: protein kinases (human kinome) (Homo sapiens, UniProt Q14289); settings: for logFC: PTK2B (Q14289-1) protein abundance, degrader vs DMSO, down; for logFC PTK2B: accession Q14289-1, experiment wp016, direction of change down
Source text: as §1, §2

[16] = molecular target: protein kinases (human kinome) (Homo sapiens, UniProt Q2M2I8); settings: experiment wp016
Source text: as §1, §2

[17] = molecular target: protein kinases (human kinome) (Homo sapiens, UniProt Q9NSY1); settings: BMP2K Q9NSY1; experiment wp016
Source text: as §1, §2

[18] = molecular target: protein kinases (human kinome) (Homo sapiens, UniProt Q9NYV4); settings: experiment wp016
Source text: as §1, §2

[19] = test system: protein kinases (human kinome); settings: for logFC: CDK9 (P50750-2) protein abundance, degrader vs DMSO, down; for logFC LCK: accession P06239-3; for logFC LCK / logFC LCK (P06239-3): direction of change down
Source text: as §1, §2

[20] = AAK1, accession Q2M218-1, direction of change down

Chain of protein kinases (human kinome) (Homo sapiens, UniProt Q00537) (Q00537 whole entry): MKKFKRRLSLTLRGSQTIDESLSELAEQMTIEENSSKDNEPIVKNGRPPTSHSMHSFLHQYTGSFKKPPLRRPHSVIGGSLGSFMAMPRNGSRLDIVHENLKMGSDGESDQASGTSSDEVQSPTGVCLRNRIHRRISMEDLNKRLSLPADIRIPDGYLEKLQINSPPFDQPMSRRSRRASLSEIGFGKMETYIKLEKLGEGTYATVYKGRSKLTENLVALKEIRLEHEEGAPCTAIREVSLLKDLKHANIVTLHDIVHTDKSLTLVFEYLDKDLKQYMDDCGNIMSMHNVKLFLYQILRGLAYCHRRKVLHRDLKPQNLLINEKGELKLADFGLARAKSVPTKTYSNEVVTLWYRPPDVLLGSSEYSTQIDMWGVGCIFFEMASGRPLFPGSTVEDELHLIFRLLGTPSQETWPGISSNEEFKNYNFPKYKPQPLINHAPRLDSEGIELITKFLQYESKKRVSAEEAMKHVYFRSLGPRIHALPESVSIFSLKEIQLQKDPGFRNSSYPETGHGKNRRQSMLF
Chain of protein kinases (human kinome) (Homo sapiens, UniProt P11802) (P11802 whole entry): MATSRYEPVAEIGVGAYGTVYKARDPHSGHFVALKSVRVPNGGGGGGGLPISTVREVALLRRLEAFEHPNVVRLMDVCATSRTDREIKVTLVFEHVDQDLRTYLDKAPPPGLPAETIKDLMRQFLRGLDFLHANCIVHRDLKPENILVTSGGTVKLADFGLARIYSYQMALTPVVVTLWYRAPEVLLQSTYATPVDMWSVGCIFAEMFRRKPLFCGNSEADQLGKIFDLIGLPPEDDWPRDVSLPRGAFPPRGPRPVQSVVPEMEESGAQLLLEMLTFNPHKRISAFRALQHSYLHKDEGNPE
Chain of protein kinases (human kinome) (Homo sapiens, UniProt P53671) (P53671 whole entry): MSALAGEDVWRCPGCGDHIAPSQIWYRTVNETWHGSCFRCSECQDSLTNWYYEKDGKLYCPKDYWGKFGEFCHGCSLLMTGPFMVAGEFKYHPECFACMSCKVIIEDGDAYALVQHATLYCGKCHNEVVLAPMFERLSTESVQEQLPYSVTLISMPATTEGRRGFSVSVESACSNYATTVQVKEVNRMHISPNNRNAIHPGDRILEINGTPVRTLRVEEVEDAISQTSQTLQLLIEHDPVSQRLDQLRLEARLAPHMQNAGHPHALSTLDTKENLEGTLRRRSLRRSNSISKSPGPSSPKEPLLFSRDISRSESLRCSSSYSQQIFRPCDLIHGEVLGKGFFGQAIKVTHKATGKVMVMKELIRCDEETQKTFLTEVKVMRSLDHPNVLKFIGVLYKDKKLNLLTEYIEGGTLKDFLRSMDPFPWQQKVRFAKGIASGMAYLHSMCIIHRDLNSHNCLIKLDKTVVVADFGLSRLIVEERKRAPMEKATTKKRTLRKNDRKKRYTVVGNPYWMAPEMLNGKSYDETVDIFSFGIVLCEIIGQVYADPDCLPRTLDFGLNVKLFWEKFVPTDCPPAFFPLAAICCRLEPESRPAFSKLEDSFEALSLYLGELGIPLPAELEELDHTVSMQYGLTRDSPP
Chain of protein kinases (human kinome) (Homo sapiens, UniProt P51451) (P51451 whole entry): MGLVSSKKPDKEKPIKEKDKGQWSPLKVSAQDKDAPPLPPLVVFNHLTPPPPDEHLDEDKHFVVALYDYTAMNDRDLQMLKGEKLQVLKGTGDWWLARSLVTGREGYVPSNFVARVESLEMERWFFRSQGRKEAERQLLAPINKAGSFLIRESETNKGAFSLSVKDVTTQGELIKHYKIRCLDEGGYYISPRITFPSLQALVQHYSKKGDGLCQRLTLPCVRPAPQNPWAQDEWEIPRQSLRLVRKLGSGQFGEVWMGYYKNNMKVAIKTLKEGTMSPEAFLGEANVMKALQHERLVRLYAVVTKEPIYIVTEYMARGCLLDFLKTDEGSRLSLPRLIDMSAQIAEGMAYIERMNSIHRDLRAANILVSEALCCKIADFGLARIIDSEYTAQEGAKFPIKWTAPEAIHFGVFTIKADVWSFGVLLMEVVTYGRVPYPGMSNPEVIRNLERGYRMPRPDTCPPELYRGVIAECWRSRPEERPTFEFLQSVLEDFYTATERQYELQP
Chain of protein kinases (human kinome) (Homo sapiens, UniProt Q9NYV4) (Q9NYV4 whole entry): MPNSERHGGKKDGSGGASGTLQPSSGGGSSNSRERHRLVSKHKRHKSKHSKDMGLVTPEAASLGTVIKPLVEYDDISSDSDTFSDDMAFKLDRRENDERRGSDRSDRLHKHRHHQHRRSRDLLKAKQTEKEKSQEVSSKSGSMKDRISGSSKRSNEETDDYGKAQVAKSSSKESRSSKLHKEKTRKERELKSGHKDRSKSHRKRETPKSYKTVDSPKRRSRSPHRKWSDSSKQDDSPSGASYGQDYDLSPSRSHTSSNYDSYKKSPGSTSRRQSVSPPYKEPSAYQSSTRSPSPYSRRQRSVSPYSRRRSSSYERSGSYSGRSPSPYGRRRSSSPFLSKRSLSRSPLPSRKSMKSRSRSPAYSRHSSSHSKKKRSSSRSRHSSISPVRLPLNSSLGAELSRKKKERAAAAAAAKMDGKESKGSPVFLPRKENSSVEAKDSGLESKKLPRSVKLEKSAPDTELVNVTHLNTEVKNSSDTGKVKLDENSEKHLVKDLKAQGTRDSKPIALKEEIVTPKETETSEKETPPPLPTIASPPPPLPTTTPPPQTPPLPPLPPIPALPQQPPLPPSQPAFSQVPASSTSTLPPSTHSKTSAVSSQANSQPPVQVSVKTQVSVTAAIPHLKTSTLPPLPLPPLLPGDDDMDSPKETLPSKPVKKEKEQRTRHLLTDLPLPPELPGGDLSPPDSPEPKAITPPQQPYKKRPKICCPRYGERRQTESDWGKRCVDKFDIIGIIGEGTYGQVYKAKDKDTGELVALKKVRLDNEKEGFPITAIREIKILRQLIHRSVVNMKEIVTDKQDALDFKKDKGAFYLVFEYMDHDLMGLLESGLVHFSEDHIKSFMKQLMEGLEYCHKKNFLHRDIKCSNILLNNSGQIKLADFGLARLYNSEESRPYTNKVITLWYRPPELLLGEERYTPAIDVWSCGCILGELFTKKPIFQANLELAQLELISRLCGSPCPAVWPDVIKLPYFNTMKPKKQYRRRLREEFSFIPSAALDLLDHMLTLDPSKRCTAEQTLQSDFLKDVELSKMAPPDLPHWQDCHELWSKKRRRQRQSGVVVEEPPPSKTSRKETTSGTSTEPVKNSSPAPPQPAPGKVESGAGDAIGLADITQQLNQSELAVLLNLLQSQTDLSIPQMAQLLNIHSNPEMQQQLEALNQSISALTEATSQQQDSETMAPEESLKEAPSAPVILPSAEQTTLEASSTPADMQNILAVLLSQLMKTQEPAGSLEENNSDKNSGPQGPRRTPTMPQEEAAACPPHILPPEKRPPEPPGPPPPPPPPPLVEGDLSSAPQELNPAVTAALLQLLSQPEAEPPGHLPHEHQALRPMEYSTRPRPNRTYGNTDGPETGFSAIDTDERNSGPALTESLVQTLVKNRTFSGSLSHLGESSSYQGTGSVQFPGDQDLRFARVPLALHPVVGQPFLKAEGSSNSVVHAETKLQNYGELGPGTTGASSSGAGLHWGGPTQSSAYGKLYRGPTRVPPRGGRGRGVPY
Chain of protein kinases (human kinome) (Homo sapiens, UniProt P16591) (P16591 whole entry): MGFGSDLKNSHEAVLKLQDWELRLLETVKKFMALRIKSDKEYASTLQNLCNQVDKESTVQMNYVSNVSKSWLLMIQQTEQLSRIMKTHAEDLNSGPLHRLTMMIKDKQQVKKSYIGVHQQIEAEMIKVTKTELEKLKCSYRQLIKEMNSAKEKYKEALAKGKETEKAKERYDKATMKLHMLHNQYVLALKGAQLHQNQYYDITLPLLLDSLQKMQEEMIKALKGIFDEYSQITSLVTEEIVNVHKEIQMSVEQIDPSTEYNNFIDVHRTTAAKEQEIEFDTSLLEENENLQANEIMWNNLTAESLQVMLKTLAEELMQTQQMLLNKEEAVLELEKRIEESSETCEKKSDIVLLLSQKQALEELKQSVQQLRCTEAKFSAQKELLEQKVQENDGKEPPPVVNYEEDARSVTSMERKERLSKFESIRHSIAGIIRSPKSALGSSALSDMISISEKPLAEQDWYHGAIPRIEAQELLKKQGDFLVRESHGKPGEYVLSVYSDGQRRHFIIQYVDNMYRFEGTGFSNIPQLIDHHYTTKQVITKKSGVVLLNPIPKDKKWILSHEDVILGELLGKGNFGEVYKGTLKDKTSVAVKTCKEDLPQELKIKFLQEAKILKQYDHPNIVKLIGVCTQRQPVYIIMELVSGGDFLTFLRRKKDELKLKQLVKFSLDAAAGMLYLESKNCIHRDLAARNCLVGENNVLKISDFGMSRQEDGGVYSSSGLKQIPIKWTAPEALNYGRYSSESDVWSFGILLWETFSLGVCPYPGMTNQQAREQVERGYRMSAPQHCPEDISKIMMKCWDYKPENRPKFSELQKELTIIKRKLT
Chain of protein kinases (human kinome) (Homo sapiens, UniProt Q00535) (Q00535 whole entry): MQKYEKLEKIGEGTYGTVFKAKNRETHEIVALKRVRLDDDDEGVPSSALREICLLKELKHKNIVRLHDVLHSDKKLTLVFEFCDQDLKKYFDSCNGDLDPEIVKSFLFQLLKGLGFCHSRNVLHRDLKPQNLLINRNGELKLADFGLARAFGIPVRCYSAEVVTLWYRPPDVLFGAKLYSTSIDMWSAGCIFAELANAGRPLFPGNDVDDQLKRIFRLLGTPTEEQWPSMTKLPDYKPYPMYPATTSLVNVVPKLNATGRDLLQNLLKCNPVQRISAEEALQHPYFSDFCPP
Chain of protein kinases (human kinome) (Homo sapiens, UniProt P50613) (P50613 whole entry): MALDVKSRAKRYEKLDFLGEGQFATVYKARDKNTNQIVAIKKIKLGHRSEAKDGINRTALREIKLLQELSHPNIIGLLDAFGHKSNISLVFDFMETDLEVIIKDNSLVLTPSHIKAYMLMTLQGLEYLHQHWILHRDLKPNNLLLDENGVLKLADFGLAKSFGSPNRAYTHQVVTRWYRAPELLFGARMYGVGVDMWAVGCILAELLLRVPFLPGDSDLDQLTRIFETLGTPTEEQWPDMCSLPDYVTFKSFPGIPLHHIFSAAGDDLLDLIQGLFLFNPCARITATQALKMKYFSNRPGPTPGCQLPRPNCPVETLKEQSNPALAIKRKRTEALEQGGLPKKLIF

Compound	logFC AURKA (O14965) [1]	logFC [2]	logFC ([2]; direction down)	logFC CDK4 (P11802) [3]	logFC of FER (P16591-1) [4]	logFC of FER [4]	logFC CDK2 (P24941-1) [5]	logFC CDK2 (P24941-1) ([5]; direction of change down)	logFC WEE1 (P30291-1) [6]	logFC [7]	logFC CDK7 [7]	logFC of BLK [8]	logFC of BLK (P51451) [8]	logFC LIMK2 [9]	logFC of LIMK2 [9]	logFC CDK6 [10]	logFC of CDK6 (Q00534) [10]	logFC of CDK5 [11]	logFC CDK5 (Q00535) [11]	logFC of CDK17 [12]	also measured
CC(C)S(=O)(=O)c1ccccc1Nc1nc(Nc2ccc(N3CCN(CCOCCOCCNC(=O)CNc4ccc5c(c4)C(=O)N(C4CCC(=O)NC4=O)C5=O)CC3)cc2)ncc1Cl (stereo not drawn) [LT2.49]	−1.853	−0.3336	−0.3336	−0.8985	−2.467	−2.467	−0.5177	−0.5177	−1.314	−1.014	−1.014	−1.613	−1.613	−0.9573	−0.9573	−0.6531	−0.6531	−0.8608	−0.8608	−0.7544	logFC CDK17 (Q00537) [12]: −0.7544; logFC ITK (Q08881) [13]: −2.212; logFC ITK (Q08881) ([13]; direction of change down): −2.212; logFC CDK13 ([14]; Accession Q14004-1): −0.3839; logFC CDK13 (Q14004-1) [14]: −0.3839; logFC [15]: −3.365; logFC PTK2B [15]: −3.365; logFC AAK1 ([16]; AAK1 (Q2M218-1), down): −1.778; logFC AAK1 [16, 20]: −1.778; logFC [17]: −0.5079; logFC BMP2K [17]: −0.5079; logFC CDK12 ([18]; Accession Q9NYV4-1): −0.868; logFC CDK12 ([18]; CDK12 (Q9NYV4-1)): −0.868; logFC [19]: −0.6469; logFC PRKAA1 (Q13131-2) ([19]; Experiment wp016, direction down): −0.3739; logFC LCK ([19]; experiment wp016): −0.6186; logFC CDK9 (P50750-2) ([19]; experiment wp016): −0.6469; logFC PRKAA1 (Q13131-2) ([19]; experiment wp016): −0.3739; logFC LCK (P06239-3) ([19]; experiment wp016): −0.6186
CC(C)S(=O)(=O)c1ccccc1Nc1nc(Nc2ccc(N3CCN(CCOCCOCCOCCNC(=O)CNc4ccc5c(c4)C(=O)N(C4CCC(=O)NC4=O)C5=O)CC3)cc2)ncc1Cl (stereo not drawn) [SK.3.89]	−1.672	−0.3539	−0.3539	−0.5177	−2.262	−2.262	−0.5953	−0.5953	−1.017	−0.7959	−0.7959	−1.335	−1.335	−0.444	−0.444	−0.3396	−0.3396	−0.6254	−0.6254	−0.6057	logFC CDK17 (Q00537) [12]: −0.6057; logFC ITK (Q08881) [13]: −2.044; logFC ITK (Q08881) ([13]; direction of change down): −2.044; logFC [15]: −3.554; logFC PTK2B [15]: −3.554; logFC AAK1 ([16]; AAK1 (Q2M218-1), down): −1.219; logFC AAK1 [16, 20]: −1.219; logFC CDK12 ([18]; Accession Q9NYV4-1): −0.5237; logFC CDK12 ([18]; CDK12 (Q9NYV4-1)): −0.5237; logFC [19]: −0.4777; logFC LCK ([19]; experiment wp016): −0.449; logFC CDK9 (P50750-2) ([19]; experiment wp016): −0.4777; logFC LCK (P06239-3) ([19]; experiment wp016): −0.449
